# Test results from PubChem BioAssay (NCI).
#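 These data come from cells grown in 96-well plates and exposed to compound for 48 hours at five concentrations. The concentration for 50% growth inhibition is given as GI50. TGI is the concentration that stops growth completely.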
# What was measured:
# Experiment in all cases: DTP human tumour cell line panel, 48 h
# KM12 colon = tested on: KM12 colon
# SF-539 CNS = tested on: SF-539 CNS
# DMS 114 small cell lung = tested on: DMS 114 small cell lung
# SK-MEL-28 melanoma = tested on: SK-MEL-28 melanoma
# NCI-H460 lung = tested on: NCI-H460 lung
# 786-0 renal = tested on: 786-0 renal
# UO-31 renal = tested on: UO-31 renal
# SNB-19 CNS = tested on: SNB-19 CNS
# SW-620 colon = tested on: SW-620 colon
# HCT-116 colon = tested on: HCT-116 colon
# LOX IMVI melanoma = tested on: LOX IMVI melanoma
# SF-295 CNS = tested on: SF-295 CNS
# TK-10 renal = tested on: TK-10 renal
# NCI-H23 lung = tested on: NCI-H23 lung
# SK-OV-3 ovarian = tested on: SK-OV-3 ovarian
# OVCAR-3 ovarian = tested on: OVCAR-3 ovarian
# SR leukemia = tested on: SR leukemia
# DLD-1 colon = tested on: DLD-1 colon
# SK-MEL-5 melanoma = tested on: SK-MEL-5 melanoma
# NCI-H226 lung = tested on: NCI-H226 lung
# SNB-75 CNS = tested on: SNB-75 CNS
# SK-MEL-2 melanoma = tested on: SK-MEL-2 melanoma
# IGROV1 ovarian = tested on: IGROV1 ovarian
# M14 melanoma = tested on: M14 melanoma
# HT29 colon = tested on: HT29 colon
# U251 CNS = tested on: U251 CNS
# OVCAR-4 ovarian = tested on: OVCAR-4 ovarian
# KM20L2 colon = tested on: KM20L2 colon
# HCC-2998 colon = tested on: HCC-2998 colon
# COLO 205 colon = tested on: COLO 205 colon
# DMS 273 small cell lung = tested on: DMS 273 small cell lung
# UACC-257 melanoma = tested on: UACC-257 melanoma
# EKVX NSCLC = tested on: EKVX NSCLC
# SF-268 CNS = tested on: SF-268 CNS
# SN12C renal = tested on: SN12C renal
# RXF 393 renal = tested on: RXF 393 renal
# HCT-15 colon = tested on: HCT-15 colon
# UACC-62 melanoma = tested on: UACC-62 melanoma
# OVCAR-5 ovarian = tested on: OVCAR-5 ovarian
# CCRF-CEM leukemia = tested on: CCRF-CEM leukemia
# A549 NSCLC = tested on: A549 NSCLC
# CAKI-1 renal = tested on: CAKI-1 renal
# MALME-3M melanoma = tested on: MALME-3M melanoma
# OVCAR-8 ovarian = tested on: OVCAR-8 ovarian
# HL-60(TB) leukemia = tested on: HL-60(TB) leukemia
# SNB-78 CNS = tested on: SNB-78 CNS
# MOLT-4 leukemia = tested on: MOLT-4 leukemia
# M19-MEL melanoma = tested on: M19-MEL melanoma
# NCI-H522 lung = tested on: NCI-H522 lung
# ACHN renal = tested on: ACHN renal
# HOP-62 NSCLC = tested on: HOP-62 NSCLC
# HOP-92 NSCLC = tested on: HOP-92 NSCLC
# RPMI-8226 leukemia = tested on: RPMI-8226 leukemia
# A498 renal = tested on: A498 renal
# LXFL 529 NSCLC = tested on: LXFL 529 NSCLC
# K-562 leukemia = tested on: K-562 leukemia
smiles,measurement,setting,value
[Cl-].[Cl-].[Cl-].[O-]c1cccc2cccnc12.[O-]c1cccc2cccnc12.[O]=[Mo],GI50,KM12 colon,0.448 µM
same,TGI,KM12 colon,2.08 µM
same,GI50,SF-539 CNS,7.34 µM
same,TGI,SF-539 CNS,> 100 µM
same,TGI,DMS 114 small cell lung,3.13 µM
same,GI50,SK-MEL-28 melanoma,2.43 µM
same,TGI,SK-MEL-28 melanoma,9.41 µM
same,GI50,NCI-H460 lung,2.52 µM
same,TGI,NCI-H460 lung,11.7 µM
same,GI50,786-0 renal,18.5 µM
same,TGI,786-0 renal,99.8 µM
same,GI50,UO-31 renal,4.09 µM
same,TGI,UO-31 renal,24.1 µM
same,GI50,SNB-19 CNS,4.87 µM
same,TGI,SNB-19 CNS,> 100 µM
same,GI50,SW-620 colon,1.92 µM
same,TGI,SW-620 colon,> 100 µM
same,GI50,HCT-116 colon,2.58 µM
same,TGI,HCT-116 colon,36.4 µM
same,GI50,LOX IMVI melanoma,2.33 µM
same,TGI,LOX IMVI melanoma,22 µM
same,GI50,SF-295 CNS,2.8 µM
same,TGI,SF-295 CNS,17.2 µM
same,GI50,TK-10 renal,15.2 µM
same,TGI,TK-10 renal,> 100 µM
same,GI50,NCI-H23 lung,2.6 µM
same,TGI,NCI-H23 lung,8.38 µM
same,GI50,SK-OV-3 ovarian,15.1 µM
same,TGI,SK-OV-3 ovarian,39.6 µM
same,GI50,OVCAR-3 ovarian,6.88 µM
same,TGI,OVCAR-3 ovarian,> 100 µM
same,TGI,SR leukemia,> 100 µM
same,TGI,DLD-1 colon,> 100 µM
same,TGI,SK-MEL-5 melanoma,3.89 µM
same,GI50,NCI-H226 lung,2.28 µM
same,TGI,NCI-H226 lung,14.2 µM
same,GI50,SNB-75 CNS,5.08 µM
same,TGI,SNB-75 CNS,> 100 µM
same,GI50,SK-MEL-2 melanoma,3.37 µM
same,TGI,SK-MEL-2 melanoma,18.1 µM
same,TGI,IGROV1 ovarian,35 µM
same,GI50,M14 melanoma,1.81 µM
same,TGI,M14 melanoma,5.48 µM
same,GI50,HT29 colon,2.88 µM
same,TGI,HT29 colon,11.5 µM
same,GI50,U251 CNS,3.57 µM
same,TGI,U251 CNS,40.5 µM
same,GI50,OVCAR-4 ovarian,3.9 µM
same,TGI,OVCAR-4 ovarian,47 µM
same,TGI,KM20L2 colon,70.6 µM
same,GI50,HCC-2998 colon,2.41 µM
same,TGI,HCC-2998 colon,5.69 µM
same,GI50,COLO 205 colon,4.6 µM
same,TGI,DMS 273 small cell lung,4.41 µM
same,GI50,UACC-257 melanoma,2.1 µM
same,TGI,UACC-257 melanoma,6.69 µM
same,GI50,EKVX NSCLC,15.4 µM
same,TGI,EKVX NSCLC,78.4 µM
same,GI50,SF-268 CNS,6.33 µM
same,TGI,SF-268 CNS,55.2 µM
same,GI50,SN12C renal,6.71 µM
same,TGI,SN12C renal,> 100 µM
same,GI50,RXF 393 renal,2 µM
same,TGI,RXF 393 renal,4.89 µM
same,GI50,HCT-15 colon,2.39 µM
same,TGI,HCT-15 colon,> 100 µM
same,GI50,UACC-62 melanoma,2.49 µM
same,TGI,UACC-62 melanoma,7.41 µM
same,GI50,OVCAR-5 ovarian,2.85 µM
same,TGI,OVCAR-5 ovarian,8.6 µM
same,GI50,CCRF-CEM leukemia,0.35 µM
same,TGI,CCRF-CEM leukemia,> 100 µM
same,GI50,A549 NSCLC,3.59 µM
same,TGI,A549 NSCLC,> 100 µM
same,GI50,CAKI-1 renal,20.6 µM
same,TGI,CAKI-1 renal,> 100 µM
same,GI50,MALME-3M melanoma,2.25 µM
same,TGI,MALME-3M melanoma,4.99 µM
same,GI50,OVCAR-8 ovarian,2.53 µM
same,TGI,OVCAR-8 ovarian,12.3 µM
COc1ccc(C(N)=O)c(OC)c1OCc1ccccc1,TGI,KM12 colon,> 100 µM
same,TGI,SF-539 CNS,> 100 µM
same,TGI,DMS 114 small cell lung,> 100 µM
same,TGI,SK-MEL-28 melanoma,> 100 µM
same,TGI,NCI-H460 lung,> 100 µM
same,TGI,786-0 renal,> 100 µM
same,TGI,UO-31 renal,> 100 µM
same,TGI,SNB-19 CNS,> 100 µM
same,TGI,SW-620 colon,> 100 µM
same,TGI,HL-60(TB) leukemia,> 100 µM
same,TGI,HCT-116 colon,> 100 µM
same,TGI,SNB-78 CNS,> 100 µM
same,TGI,LOX IMVI melanoma,> 100 µM
same,TGI,SF-295 CNS,> 100 µM
same,TGI,TK-10 renal,> 100 µM
same,TGI,NCI-H23 lung,> 100 µM
same,TGI,MOLT-4 leukemia,> 100 µM
same,TGI,SK-OV-3 ovarian,> 100 µM
same,TGI,OVCAR-3 ovarian,> 100 µM
same,TGI,M19-MEL melanoma,> 100 µM
same,TGI,DLD-1 colon,> 100 µM
same,TGI,SK-MEL-5 melanoma,> 100 µM
same,TGI,NCI-H226 lung,> 100 µM
same,TGI,NCI-H522 lung,81.7 µM
same,TGI,SNB-75 CNS,> 100 µM
same,TGI,ACHN renal,> 100 µM
same,TGI,SK-MEL-2 melanoma,> 100 µM
same,TGI,IGROV1 ovarian,> 100 µM
same,TGI,M14 melanoma,> 100 µM
same,TGI,HT29 colon,> 100 µM
same,TGI,U251 CNS,> 100 µM
same,TGI,OVCAR-4 ovarian,> 100 µM
same,TGI,KM20L2 colon,> 100 µM
same,TGI,HCC-2998 colon,> 100 µM
same,TGI,COLO 205 colon,> 100 µM
same,TGI,DMS 273 small cell lung,> 100 µM
same,TGI,HOP-62 NSCLC,> 100 µM
same,TGI,EKVX NSCLC,> 100 µM
same,TGI,SF-268 CNS,> 100 µM
same,TGI,SN12C renal,> 100 µM
same,TGI,HOP-92 NSCLC,> 100 µM
same,TGI,RXF 393 renal,7.11 µM
same,TGI,HCT-15 colon,> 100 µM
same,TGI,UACC-62 melanoma,> 100 µM
same,TGI,RPMI-8226 leukemia,> 100 µM
same,TGI,A498 renal,> 100 µM
same,TGI,OVCAR-5 ovarian,> 100 µM
same,TGI,LXFL 529 NSCLC,> 100 µM
same,TGI,CCRF-CEM leukemia,> 100 µM
same,TGI,A549 NSCLC,> 100 µM
same,TGI,OVCAR-8 ovarian,> 100 µM
same,TGI,K-562 leukemia,> 100 µM
